In the supplement of paper PMC11061612:

What was measured:
Assay in all cases: combination Emax (second highest fraction inhibited in the dose matrix, 72 h); higher = more inhibition; extreme values may be limits of the assay
[1] = system: B-CPAP (Thyroid Gland Carcinoma)
Summary of the method: (§1)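 Bliss excess equals the observed combination effect minus the expected value EA + EB − EA·EB, where EA and EB are the effects of each agent alone. Combination Emax is the second-highest inhibition within the matrix. Inhibition was scaled from CellTiter-Glo 2.0 luminescence, with 0 set by vehicle wells and 1 by blank wells, after 72 hours of two-drug dosing of cells plated in 1536-well plates.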

[2] = system: CAL-148 (Breast Carcinoma)
Summary of the method: as §1

[3] = system: COLO-205 (Colorectal Carcinoma)
Summary of the method: as §1

[4] = system: Calu-3 (Lung Adenocarcinoma)
Summary of the method: as §1

[5] = system: DoTc2-4510 (Cervical Carcinoma)
Summary of the method: as §1

[6] = system: HCC1806 (Breast Carcinoma)
Summary of the method: as §1

HOS (Osteosarcoma) = system: HOS (Osteosarcoma)
Summary of the method: as §1

KELLY (Neuroblastoma) = system: KELLY (Neuroblastoma)
Summary of the method: as §1

[7] = system: KURAMOCHI (Ovarian Carcinoma)
Summary of the method: as §1

[8] = system: KYSE-520 (Esophageal Squamous Cell Carcinoma)
Summary of the method: as §1

[9] = system: LNCaP-Clone-FGC (Prostate Carcinoma)
Summary of the method: as §1

[10] = system: LS-180 (Colorectal Carcinoma)
Summary of the method: as §1

[11] = system: LU-135 (Small Cell Lung Carcinoma)
Summary of the method: as §1

[12] = system: ME-1 (Acute Myeloid Leukemia)
Summary of the method: as §1

NB10 (Neuroblastoma) = system: NB10 (Neuroblastoma)
Summary of the method: as §1

NOS-1 (Osteosarcoma) = system: NOS-1 (Osteosarcoma)
Summary of the method: as §1

[13] = system: OVCA420 (Ovarian Carcinoma)
Summary of the method: as §1

[14] = system: RO82-W-1 (Thyroid Gland Carcinoma)
Summary of the method: as §1

[15] = system: Ramos-2G6-4C10 (Burkitt's Lymphoma)
Summary of the method: as §1

[16] = system: SK-ES-1 (Ewing's Sarcoma)
Summary of the method: as §1

SMILES	combination Emax [1]	combination Emax [2]	combination Emax [3]	combination Emax [4]	combination Emax [5]	combination Emax [6]	combination Emax (HOS (Osteosarcoma))	combination Emax (KELLY (Neuroblastoma))	combination Emax [7]	combination Emax [8]	combination Emax [9]	combination Emax [10]	combination Emax [11]	combination Emax [12]	combination Emax (NB10 (Neuroblastoma))	combination Emax (NOS-1 (Osteosarcoma))	combination Emax [13]	combination Emax [14]	combination Emax [15]	combination Emax [16]
NC1(C(=O)N[C@@H](CCO)c2ccc(Cl)cc2)CCN(c2ncnc3[nH]ccc23)CC1 [Capivasertib] + CC(=O)c1c(C)c2cnc(Nc3ccc(N4CCNCC4)cn3)nc2n(C2CCCC2)c1=O [Palbociclib] (first compound max 10 µM, 7x7, partner max 10 µM)	0.523	0.964	0.587	0.396	0.181	0.516	0.504	0.522	0.29	0.638	0.945	0.61	0.452	0.257	0.369	0.607	0.412	0.218	0.42	0.655
NC1(C(=O)N[C@@H](CCO)c2ccc(Cl)cc2)CCN(c2ncnc3[nH]ccc23)CC1 [Capivasertib] + COc1nnc2ccc(N3CCC(c4ccc(OCCN5CCN(C)C(=O)[C@H]5C)cc4)CC3)nn12 [AZD5153] (first compound max 10 µM, 7x7, partner max 1 µM)	0.723	1	0.808	0.749	0.317	0.556	0.632	0.336	0.776	0.668	0.993	0.694	0.969	0.402	0.527	0.806	0.762	0.362	0.997	0.789
COc1nnc2ccc(N3CCC(c4ccc(OCCN5CCN(C)C(=O)[C@H]5C)cc4)CC3)nn12 [AZD5153] + Cc1c2c(nn1C)CSCc1cc(n(C)n1)CSc1cc(c3ccccc3c1)OCCCc1c(C(=O)O)n(C)c3c-2c(Cl)ccc13 [AZD5991] (first compound max 1 µM, 7x7, partner max 1 µM)	0.706	1	0.79	0.677	0.362	0.755	0.879	0.993	0.927	0.585	0.772	0.585	0.994	0.793	0.651	1	0.771	0.411	1	0.948
COc1cccc(OCCCN)c1-c1cc(Nc2cnc(C#N)cn2)n[nH]1 [Prexasertib] + CCc1c2c(nc3ccc(O)cc13)-c1cc3c(c(=O)n1C2)COC(=O)[C@]3(O)CC [SN-38] (first compound max 1 µM, 7x7, partner max 0.3 µM)	0.968	0.935	0.938	0.549	0.964	0.996	0.994	1	0.897	0.856	0.766	0.759	0.833	0.627	0.865	0.524	0.75	0.511	1	1
COc1nnc2ccc(N3CCC(c4ccc(OCCN5CCN(C)C(=O)[C@H]5C)cc4)CC3)nn12 [AZD5153] + C[C@@H]1COCCN1C2=NC(=NC(=C2)C3(CC3)[S@](=N)(=O)C)C4=C5C=CNC5=NC=C4 [AZD6738] (first compound max 1 µM, 7x7, partner max 10 µM)	0.72	0.912	0.83	0.719	0.511	0.919	0.704	0.983	0.826	0.681	0.791	0.767	1	0.651	0.903	0.887	0.807	0.398	0.913	0.929
C[C@@H](c1ccc2nccn2c1)n1nnc2ncc(-c3cnn(C)c3)nc21 [Savolitinib] + Cc1c2c(nn1C)CSCc1cc(n(C)n1)CSc1cc(c3ccccc3c1)OCCCc1c(C(=O)O)n(C)c3c-2c(Cl)ccc13 [AZD5991] (first compound max 1 µM, 7x7, partner max 1 µM)	0.211	0.275	0.0758	0.2	0.205	0.2	0.278	0.805	0.286	0.189	0.163	0.199	0.194	0.397	0.202	0.742	0.213	0.169	0.975	0.781
CN(C)CCCOc1ccc(-c2ccc3ncc4c(c3c2)n(C2CCOCC2)c(=O)n4C)cn1 [AZD0156] + C=CCn1c(=O)c2cnc(Nc3ccc(N4CCN(C)CC4)cc3)nc2n1-c1cccc(C(C)(C)O)n1 [AZD1775] (first compound max 1 µM, partner max 1 µM)	0.357	0.966	0.341	0.0731	0.473	0.901	0.24	1	0.678	0.32	0.738	0.452	0.644	0.413	0.586	0.247	0.141	0.38	0.995	0.903
C=CCn1c(=O)c2cnc(Nc3ccc(N4CCN(C)CC4)cc3)nc2n1-c1cccc(C(C)(C)O)n1 [AZD1775] + C1CN(CCC1(C(=O)N[C@@H](CCO)C2=CC=C(C=C2)Cl)N)C3=NC=NC4=C3C=CN4 [Capivasertib] (first compound max 3 µM, partner max 3 µM)	0.815	0.92	0.832	0.466	0.723	0.933	0.831	1	0.625	0.598	1	0.734	0.669	0.685	0.892	0.606	0.59	0.471	0.99	0.883
CN(CCO)CC[C@H](CSc1ccccc1)Nc1ccc(S(=O)(=O)NC(=O)c2ccc(N3CCC([C@@H](O)c4ccccc4-c4ccc(Cl)cc4)CC3)cc2)cc1S(=O)(=O)C(F)(F)F [AZD4320] + C1CN(CCC1(C(=O)N[C@@H](CCO)C2=CC=C(C=C2)Cl)N)C3=NC=NC4=C3C=CN4 [Capivasertib] (first compound max 1 µM, 7x7, partner max 3 µM)	0.284	1	0.831	0.124	0.59	0.212	0.229	0.229	0.351	0.329	0.97	0.213	1	1	0.108	0.475	0.0769	0.311	0.586	0.94
Cc1cc2ncnn2cc1Nc1ncc2c(n1)n(C1CCOCC1)c(=O)n2C [AZD7648] + CN(C)CCCOc1ccc(-c2ccc3ncc4c(c3c2)n(C2CCOCC2)c(=O)n4C)cn1 [AZD0156] (first compound max 10 µM, 7x7, partner max 1 µM)	0.286	0.424	0.39	0.215	0.26	0.271	0.273	0.878	0.192	0.305	0.546	0.358	0.172	0.213	0.307	0.225	0.262	0.394	0.292	0.503
COc1cccc(OCCCN)c1-c1cc(Nc2cnc(C#N)cn2)n[nH]1 [Prexasertib] + C=CCn1c(=O)c2cnc(Nc3ccc(N4CCN(C)CC4)cc3)nc2n1-c1cccc(C(C)(C)O)n1 [AZD1775] (first compound max 1 µM, partner max 1 µM)	0.874	1	0.908	0.482	0.906	0.983	0.97	1	0.773	0.735	0.846	0.819	0.655	0.599	0.953	0.432	0.726	0.553	1	1
Cn1cnc2c(F)c(Nc3ccc(Br)cc3Cl)c(C(=O)NOCCO)cc21 [Selumetinib] + C[C@@H]1COCCN1C2=NC(=NC(=C2)C3(CC3)[S@](=N)(=O)C)C4=C5C=CNC5=NC=C4 [AZD6738] (first compound max 10 µM, 7x7, partner max 10 µM)	0.421	0.825	0.76	0.408	0.392	0.938	0.529	0.952	0.554	0.534	0.673	0.76	0.753	0.469	0.916	0.784	0.562	0.266	0.847	0.82
CC(=O)c1c(C)c2cnc(Nc3ccc(N4CCNCC4)cn3)nc2n(C2CCCC2)c1=O [Palbociclib] + Cc1c2c(nn1C)CSCc1cc(n(C)n1)CSc1cc(c3ccccc3c1)OCCCc1c(C(=O)O)n(C)c3c-2c(Cl)ccc13 [AZD5991] (first compound max 10 µM, 7x7, partner max 1 µM)	0.427	0.376	0.497	0.219	0.215	0.383	0.404	0.897	0.358	0.462	0.5	0.521	0.388	0.693	0.369	0.925	0.265	0.189	0.986	0.851
